Laboratory results published in PMC9403976, “Elucidating the path to Plasmodium prolyl-tRNA synthetase inhibitors that overcome halofuginone resistance” (Nature Communications, 2022).
pKd: −log10 of the molar value. “And” between values parts separate entries of the source, which are not always exact repeats. Equal entries are not always repeated. Where two headings read alike, the source gives them in different places.

Tests used:
PfcProRS = molecular target: T1, PfcProRS (Plasmodium falciparum, UniProt Q8I5R7); assay type: binding; settings: single replicates
T1 construct: made in house; host or cells: E. coli SoluBL-21
T1 sequence (Q8I5R7 249-746): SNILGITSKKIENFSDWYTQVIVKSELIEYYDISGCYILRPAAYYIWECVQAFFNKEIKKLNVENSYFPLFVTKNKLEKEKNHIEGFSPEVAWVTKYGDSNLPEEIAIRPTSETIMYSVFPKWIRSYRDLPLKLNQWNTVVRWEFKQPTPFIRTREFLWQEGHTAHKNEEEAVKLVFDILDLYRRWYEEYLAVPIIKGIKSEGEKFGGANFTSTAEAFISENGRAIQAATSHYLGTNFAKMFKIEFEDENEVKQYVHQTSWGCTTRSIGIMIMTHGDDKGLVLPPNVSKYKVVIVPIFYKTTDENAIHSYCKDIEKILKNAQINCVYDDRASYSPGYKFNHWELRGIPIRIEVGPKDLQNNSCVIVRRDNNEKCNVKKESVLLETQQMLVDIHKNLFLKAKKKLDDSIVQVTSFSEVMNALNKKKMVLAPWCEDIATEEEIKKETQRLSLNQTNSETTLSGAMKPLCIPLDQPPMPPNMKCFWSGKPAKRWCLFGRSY

HsProRS = HsProRS (Homo sapiens, UniProt P07814); experiment: TR-FRET ligand displacement assay with tracer MAT379 (CoraFluor-1-Halo and anti-His6 antibody formats); assay type: binding; set-up: made in house; host or cells: E. coli SoluBL-21; settings: for TR-FRET dose-response, normalized signal (SI Fig 11): individual replicates
Sequence of HsProRS (P07814 996-1512): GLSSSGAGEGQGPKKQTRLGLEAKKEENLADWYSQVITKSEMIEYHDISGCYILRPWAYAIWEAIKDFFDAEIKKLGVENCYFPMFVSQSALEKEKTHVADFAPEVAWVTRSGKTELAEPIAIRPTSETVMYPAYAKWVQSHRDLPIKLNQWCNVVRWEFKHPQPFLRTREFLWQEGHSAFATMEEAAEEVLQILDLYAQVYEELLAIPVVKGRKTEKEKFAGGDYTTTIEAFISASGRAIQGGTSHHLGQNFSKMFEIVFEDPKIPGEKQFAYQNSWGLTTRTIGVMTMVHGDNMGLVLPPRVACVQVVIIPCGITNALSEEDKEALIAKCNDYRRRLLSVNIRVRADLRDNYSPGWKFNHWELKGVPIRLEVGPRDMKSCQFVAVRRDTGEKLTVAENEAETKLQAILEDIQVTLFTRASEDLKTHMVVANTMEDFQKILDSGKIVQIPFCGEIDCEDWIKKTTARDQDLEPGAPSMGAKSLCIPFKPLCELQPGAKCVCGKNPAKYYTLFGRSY

For `CC(C)N(C(=O)Nc1nccnc1C(=O)NC1Cc2ccccc2C1)C(C)C` [compound 5], the “dose-response signal (normalized), SI Fig 8” value (PfcProRS; Log[inhibitor] (M) -5.000) was 1.47E-01 and 1.35E-01 and 1.83E-01, the “dose-response signal (normalized), SI Fig 8” value (PfcProRS; Log[inhibitor] (M) -5.301) was 3.88E-01 and 4.48E-01 and 4.36E-01 and the “dose-response signal (normalized), SI Fig 8” value (PfcProRS; Log[inhibitor] (M) -5.601) was 7.44E-01 and 8.07E-01 and 7.69E-01. The “dose-response signal (normalized), SI Fig 8” value (PfcProRS; Log[inhibitor] (M) -5.904) was 8.45E-01 and 8.57E-01 and 9.58E-01, the “dose-response signal (normalized), SI Fig 8” value (PfcProRS; Log[inhibitor] (M) -6.208) was 8.74E-01 and 8.91E-01 and 9.30E-01 and the “dose-response signal (normalized), SI Fig 8” value (PfcProRS; Log[inhibitor] (M) -6.509) was 9.93E-01 and 1.13E+00 and 1.03E+00. The “dose-response signal (normalized), SI Fig 8” value (PfcProRS; Log[inhibitor] (M) -6.796) was 1.01E+00 and 9.89E-01 and 1.13E+00, the “dose-response signal (normalized), SI Fig 8” value (PfcProRS; Log[inhibitor] (M) -7.108) was 9.82E-01 and 9.95E-01 and 1.21E+00 and the “dose-response signal (normalized), SI Fig 8” value (PfcProRS; Log[inhibitor] (M) -7.409) was 1.20E+00 and 1.06E+00 and 1.08E+00. The “dose-response signal (normalized), SI Fig 8” value (PfcProRS; Log[inhibitor] (M) -7.710) was 1.11E+00 (2×) and 1.12E+00, the “dose-response signal (normalized), SI Fig 8” value (PfcProRS; Log[inhibitor] (M) -8.000) was 1.01E+00 and 1.06E+00 and 1.07E+00 and the “dose-response signal (normalized), SI Fig 8” value (PfcProRS; Log[inhibitor] (M) -8.301) was 9.64E-01 and 1.10E+00 and 1.14E+00. For the same molecule, the “dose-response signal (normalized), SI Fig 8” value (PfcProRS; Log[inhibitor] (M) -8.602) was 8.54E-01 and 1.04E+00 and 1.07E+00, the “dose-response signal (normalized), SI Fig 8” value (PfcProRS; Log[inhibitor] (M) -9.000) was 9.25E-01 and 9.26E-01 and 1.03E+00 and the “dose-response signal (normalized), SI Fig 8” value (PfcProRS; Log[inhibitor] (M) -9.301) was 8.80E-01 and 9.99E-01 and 1.04E+00. The pKd (HsProRS; HsProRS - best Kd, SI Fig 16a, values on -log scale) was 5.99, the “normalized TR-FRET ligand displacement signal, dose-response replicates (SI Fig 6)” value (HsProRS; Log[inhibitor] (M) -5.000) was 8.71E-01 and 7.50E-01 and 6.79E-01 and the “TR-FRET dose-response, normalized signal (SI Fig 11)” value (HsProRS; Log[inhibitor] (M) -5.000) was 6.19E-01 and 6.48E-01 and 6.40E-01. The “normalized TR-FRET ligand displacement signal, dose-response replicates (SI Fig 6)” value (HsProRS; Log[inhibitor] (M) -5.301) was 9.58E-01 and 7.89E-01 and 8.27E-01, the “TR-FRET dose-response, normalized signal (SI Fig 11)” value (HsProRS; Log[inhibitor] (M) -5.301) was 7.58E-01 and 7.59E-01 and 7.76E-01 and the “normalized TR-FRET ligand displacement signal, dose-response replicates (SI Fig 6)” value (HsProRS; Log[inhibitor] (M) -5.601) was 8.37E-01 and 1.05E+00 and 1.03E+00. For the same molecule, the “TR-FRET dose-response, normalized signal (SI Fig 11)” value (HsProRS; Log[inhibitor] (M) -5.601) was 8.37E-01 and 8.60E-01 and 8.59E-01, the “normalized TR-FRET ligand displacement signal, dose-response replicates (SI Fig 6)” value (HsProRS; Log[inhibitor] (M) -5.904) was 1.09E+00 and 1.03E+00 and 9.64E-01 and the “TR-FRET dose-response, normalized signal (SI Fig 11)” value (HsProRS; Log[inhibitor] (M) -5.904) was 9.61E-01 and 8.97E-01 and 9.02E-01. For the same molecule, the “normalized TR-FRET ligand displacement signal, dose-response replicates (SI Fig 6)” value (HsProRS; Log[inhibitor] (M) -6.208) was 9.53E-01 and 8.96E-01 and 9.38E-01, the “TR-FRET dose-response, normalized signal (SI Fig 11)” value (HsProRS; Log[inhibitor] (M) -6.208) was 9.36E-01 and 9.49E-01 and 9.17E-01 and the “normalized TR-FRET ligand displacement signal, dose-response replicates (SI Fig 6)” value (HsProRS; Log[inhibitor] (M) -6.509) was 9.42E-01 and 9.99E-01 and 1.01E+00. The “TR-FRET dose-response, normalized signal (SI Fig 11)” value (HsProRS; Log[inhibitor] (M) -6.509) was 8.96E-01 and 8.83E-01 and 9.32E-01, the “normalized TR-FRET ligand displacement signal, dose-response replicates (SI Fig 6)” value (HsProRS; Log[inhibitor] (M) -6.796) was 1.20E+00 (2×) and 1.11E+00 and the “TR-FRET dose-response, normalized signal (SI Fig 11)” value (HsProRS; Log[inhibitor] (M) -6.796) was 9.19E-01 and 9.16E-01 and 9.35E-01. The “normalized TR-FRET ligand displacement signal, dose-response replicates (SI Fig 6)” value (HsProRS; Log[inhibitor] (M) -7.108) was 9.92E-01 and 1.02E+00 and 1.18E+00, the “TR-FRET dose-response, normalized signal (SI Fig 11)” value (HsProRS; Log[inhibitor] (M) -7.108) was 9.11E-01 and 9.16E-01 and 8.81E-01 and the “normalized TR-FRET ligand displacement signal, dose-response replicates (SI Fig 6)” value (HsProRS; Log[inhibitor] (M) -7.409) was 8.86E-01 and 9.18E-01 and 1.10E+00. For the same molecule, the “TR-FRET dose-response, normalized signal (SI Fig 11)” value (HsProRS; Log[inhibitor] (M) -7.409) was 9.21E-01 and 9.28E-01 and 9.54E-01, the “normalized TR-FRET ligand displacement signal, dose-response replicates (SI Fig 6)” value (HsProRS; Log[inhibitor] (M) -7.710) was 1.00E+00 and 9.56E-01 and 9.99E-01 and the “TR-FRET dose-response, normalized signal (SI Fig 11)” value (HsProRS; Log[inhibitor] (M) -7.710) was 9.54E-01 and 9.03E-01 and 9.47E-01. The “normalized TR-FRET ligand displacement signal, dose-response replicates (SI Fig 6)” value (HsProRS; Log[inhibitor] (M) -8.000) was 1.08E+00 and 9.18E-01 and 9.67E-01, the “TR-FRET dose-response, normalized signal (SI Fig 11)” value (HsProRS; Log[inhibitor] (M) -8.000) was 9.82E-01 and 9.20E-01 and 9.02E-01 and the “normalized TR-FRET ligand displacement signal, dose-response replicates (SI Fig 6)” value (HsProRS; Log[inhibitor] (M) -8.301) was 9.61E-01 and 8.84E-01 and 1.00E+00. For the same molecule, the “TR-FRET dose-response, normalized signal (SI Fig 11)” value (HsProRS; Log[inhibitor] (M) -8.301) was 9.50E-01 and 9.79E-01 and 9.60E-01, the “normalized TR-FRET ligand displacement signal, dose-response replicates (SI Fig 6)” value (HsProRS; Log[inhibitor] (M) -8.602) was 9.71E-01 and 1.01E+00 and 8.97E-01 and the “TR-FRET dose-response, normalized signal (SI Fig 11)” value (HsProRS; Log[inhibitor] (M) -8.602) was 9.46E-01 and 9.17E-01 and 9.64E-01. For the same molecule, the “normalized TR-FRET ligand displacement signal, dose-response replicates (SI Fig 6)” value (HsProRS; Log[inhibitor] (M) -9.000) was 9.83E-01 and 9.95E-01 and 9.23E-01, the “TR-FRET dose-response, normalized signal (SI Fig 11)” value (HsProRS; Log[inhibitor] (M) -9.000) was 9.65E-01 and 9.90E-01 and 9.18E-01 and the “normalized TR-FRET ligand displacement signal, dose-response replicates (SI Fig 6)” value (HsProRS; Log[inhibitor] (M) -9.301) was 9.67E-01 and 9.33E-01 and 1.01E+00. For the same molecule, the “TR-FRET dose-response, normalized signal (SI Fig 11)” value (HsProRS; Log[inhibitor] (M) -9.301) was 9.51E-01 and 9.69E-01 and 8.77E-01.
